The source of these data is patent publication US6033823A, “Mutated penicillin G acylase genes” (priority 1994, dated 2000).

The experiment deals with T1, Alcaligenes faecalis Penicillin G acylase, wild type (α subunit SEQ ID NO:27, β subunit SEQ ID NO:32) (Alcaligenes faecalis, UniProt O34142).
T1 construct: alpha 202 aa, beta 551 aa; likely recombinant, E. coli host
T1 sequence (O34142 27-228): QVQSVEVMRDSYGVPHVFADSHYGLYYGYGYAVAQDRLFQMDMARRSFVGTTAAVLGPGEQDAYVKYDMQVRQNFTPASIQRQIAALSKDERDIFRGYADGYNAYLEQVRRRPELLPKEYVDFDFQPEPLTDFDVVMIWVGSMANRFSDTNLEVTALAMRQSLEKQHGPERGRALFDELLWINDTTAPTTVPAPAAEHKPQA
T1 sequence (O34142 266-816): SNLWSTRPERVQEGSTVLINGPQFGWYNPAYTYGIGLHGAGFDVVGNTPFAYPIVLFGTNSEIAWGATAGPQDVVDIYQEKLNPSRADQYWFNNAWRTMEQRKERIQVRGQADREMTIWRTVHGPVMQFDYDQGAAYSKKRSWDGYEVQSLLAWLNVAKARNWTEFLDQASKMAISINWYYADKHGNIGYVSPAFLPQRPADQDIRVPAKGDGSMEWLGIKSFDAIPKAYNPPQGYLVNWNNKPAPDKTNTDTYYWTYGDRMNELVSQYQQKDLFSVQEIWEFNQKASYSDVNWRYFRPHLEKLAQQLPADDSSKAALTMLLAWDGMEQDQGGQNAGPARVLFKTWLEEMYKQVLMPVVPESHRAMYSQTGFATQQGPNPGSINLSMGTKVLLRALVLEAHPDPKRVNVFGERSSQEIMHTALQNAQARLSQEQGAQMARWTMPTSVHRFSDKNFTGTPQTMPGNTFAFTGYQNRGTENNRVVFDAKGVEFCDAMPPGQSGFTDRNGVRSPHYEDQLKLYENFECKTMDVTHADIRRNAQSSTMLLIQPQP
As to the kind of experiment: Deacylation kinetics and phenylacetic acid product inhibition, wild type PenG acylase. The experiment is classed as biochemical. The settings on record: Table 8, wt AF; NIPAB, 0.1 M NaH2PO4, pH 7.5, 25° C. The procedure:
In order to determine enzymatic activity the acylases were incubated with substrate at room temperature in buffered solution. In case β-lactamase impurity was expected to be present in the enzyme preparations, 1.0 mM -lactamase inhibitor 6-bromo-penicillanic acid was added to the assay. The reactions were stopped by adding an excess PMSF. For some mutants which were less sensitive to PMSF inhibition, the reactions were stopped by adding 0.5 M HCl or 0.5 M acetic acid until the pH was between 3 and 4. When reactions were subsequently analysed by HPLC, the reactions were stopped by dilution with the correponding elution solvent (see table 1). […]
The composition of the reaction mixtures was determined by high-performanceliquid chromatography (HPLC)(table 1). Concentrations were determined by using standards of known concentration.
In a continuous assay Penicillin G acylase was assayed spectro-fotometrically with the chromogenic substrate NIPAB [6-nitro-3-phenylacetamido-benzoic acid]. The liberation of 3-amino-6-nitrobenzoic acid was monitored by measuring the extinction at 405 nm in a Kontron 610 kinetic spectrofotometer. […]
Initial rate measurements were performed with excess substrate over the enzyme. Catalytic parameters were derived from least-squares fitting of the measured initial rates plotted for various substrate concentrations according to the Michaelis-Menten equation. […]

Turning to `O=C(Cc1ccccc1)Nc1ccc([N+](=O)[O-])c(C(=O)O)c1` [NIPAB, 6-nitro-3-phenylacetamido-benzoic acid], the Vmax is recorded as 37.0 U/mg.
